Measured values: publication PMC8003295, “The In Vitro Interaction of 12-Oxophytodienoic Acid and Related Conjugated Carbonyl Compounds with Thiol Antioxidants” (Biomolecules, 2021)

What was measured:
[1] = biological target: T1, Cyp20-3 (Arabidopsis thaliana, UniProt P34791, C248S); assay: ITC (single-site fit, poor fit noted); type: binding
T1 construct: recombinant Cyp20-3 C171S variant, His6-tag not cleaved

[2] = biological target: T2, Cyp20-3 (Arabidopsis thaliana, UniProt P34791, C206S); assay: PPIase activity assay (chymotrypsin-coupled), […] 12-OPDA; type: biochemical
T2 construct: recombinant Cyp20-3 C129S variant, His6-tag not cleaved
T2 sequence (P34791 78-260 C206S): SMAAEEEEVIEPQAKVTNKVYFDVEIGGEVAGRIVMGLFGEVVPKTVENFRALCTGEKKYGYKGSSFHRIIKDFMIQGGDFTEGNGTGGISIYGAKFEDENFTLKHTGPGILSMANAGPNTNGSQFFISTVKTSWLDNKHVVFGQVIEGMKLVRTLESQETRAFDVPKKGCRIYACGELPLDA

[3] = biological target: T3, Cyp20-3 (Arabidopsis thaliana, UniProt P34791); assay: ITC (single-site fit, poor fit noted); intrinsic fluorescence quenching; PPIase activity; type: binding
T3 construct: recombinant Cyp20-3 WT, His6-tag not cleaved
T3 sequence (P34791 78-260): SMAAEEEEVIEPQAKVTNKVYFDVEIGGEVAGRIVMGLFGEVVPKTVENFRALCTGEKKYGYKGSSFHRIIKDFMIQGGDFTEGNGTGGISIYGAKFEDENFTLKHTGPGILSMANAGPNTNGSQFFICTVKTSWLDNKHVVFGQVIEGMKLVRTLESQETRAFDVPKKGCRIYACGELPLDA

T1 sequence (P34791 78-260 C248S): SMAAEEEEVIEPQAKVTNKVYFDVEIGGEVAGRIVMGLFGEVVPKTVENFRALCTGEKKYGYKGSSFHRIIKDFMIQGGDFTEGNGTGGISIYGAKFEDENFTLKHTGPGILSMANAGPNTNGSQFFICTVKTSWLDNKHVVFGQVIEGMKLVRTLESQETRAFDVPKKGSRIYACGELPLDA

For CC/C=C\C[C@@H]1C(=O)C=C[C@@H]1CCCCCCCC(=O)O [12-OPDA, 12-oxophytodienoic acid], the Kd [1] was 26 ± 8 µM, the “PPIase activity assay (chymotrypsin-coupled), 26 μM 12-OPDA” value [2] was 12-OPDA stimulated the activity of oxidized Cyp20-3 WT and C129S to a similar extent and the Kd [3] was 35.7 ± 9 µM.
